Test results reported in patent publication US20090017006A1, “USE OF A COMPOUND FOR ENHANCING THE EXPRESSION OF MEMBRANE PROTEINS ON THE CELL SURFACE” (BIODEVELOPS PHARMA ENTWICKLUNG GMBH, priority 2005, published 2009).
“Also recorded” adds a separate entry of the source. Residues, ends and D or L forms follow the SMILES beside them. *: point of attachment. Cbz = O=C(OCc1ccccc1)*

Legend:
Assay type in all cases: cell-based
CFTR-ΔF508 [1] = assay: FACS monitoring of expression of GFP-tagged CFTR-ΔF508 in HEK293 cells; details: for CFTR-ΔF508-associated fluorescence (expression level) versus control: 24 h
Experimental: (§1) Cultured HEK293 cells were transfected with plasmids encoding CFTR or CFTR-ΔF508 (GFP-tagged) and/or co-transfected with plasmids encoding USP4 (or an appropriate control plasmid) by using the CaPO4-precipitation method. Sixteen hours after transfection the cells were treated with varying concentrations of compounds. At a specific time point (here 24 h) the cells are trypsinized, fixed in ethanol, permeabilized and stained with propidium iodide (PI). The stained cells are subjected to FACS analysis
Because CFTR is tagged with a fluorescent protein, expression in individual cells can be monitored by fluorescence activated cell sorting (FACS). By contrast with fluorescence microscopy (where individual cells are picked), FACS allows to survey the entire cell population. In addition, FACS has the advantage that it allows for reasonable sample throughput; finally, automation and scale-up is readily possible.
The original data set is shown on the right hand side of the figures, respectively (see e.g. FIG. 2c): the x-axis is the propidium iodide fluorescence (note that the scale is linear). The y-axis is the GFP-fluorescence (=fluorescence associated with CFTR; note that the scale is logarithmic) and each dot corresponds to a cell. The quadrangle delineates the cells that express CFTR.

HEK293 cells = assay: FACS propidium iodide staining: cell cycle distribution / apoptosis of transfected HEK293 cells
Experimental: as §1
Transiently transfected HE 293 cells were fixed in ethanol 24 h after transfection as mentioned above and then stained with propidium iodide to label the DNA: the rationale was to examine the distribution of cells in the cell cycle (=to see if the expression of CFTR or of CFTR-ΔF508 was toxic or if the compounds employed killed the cells/drove them into apoptosis).
One can plot the cell counts against the propidium iodide fluorescence of the transfected cells (such as shown in, for example, FIG. 2b): This gives a peak of cells (denoted by M1) that have a 2n content of DNA (G1-cells), a shoulder of cells that have a DNA content of larger than 2n (denoted by M3 and representing cells that are in S-phase) and a second peak of cells that have a DNA content of 4n (denoted by M2 and representing cells in G2 and M-phase).

CFTR-ΔF508 [2] = assay: Immunoblot for GFP-tagged CFTR-ΔF508 expressed in HEK293 cells (endoglycosidase H treated extracts); set-up: accumulation of CFTR-ΔF508 (intensity of staining compared to control lane 4): unit of the concentration uncertain; details: for accumulation of CFTR-ΔF508 (intensity of staining compared to control lane 4): treated overnight (16 h)
Experimental: HEK293 cells (1*10^6 cells) were transfected with plasmids encoding CFTR or CFTR-ΔF508 (GFP-tagged) and/or co-transfected with effector plasmids. After 16 h, the cells were treated with the varying concentrations of compounds. After 24 h, the cells were harvested in phosphate-buffered saline, lysed by a freeze-thaw cycle and homogenized by sonication. The homogenate was resuspended in reducing Laemmli sample buffer (50 mM Tris.Hcl, pH 6.8, 20% glycerol, 0.1% bromophenol blue, 2% SDS and 20 mM dithiothreitol); aliquots (15% of the original culture) were resolved on a denaturing polyacrylamide gel (monomer concentration in the stacking gel and in the running gel 4 and 8% respectively) and electrophoretically transferred to a nitrocellulose membrane. Immunodetection was done with an antiserum directed against GFP as the primary antibody and an anti-rabbit IgG coupled to horseradish peroxidase as the secondary antibody.
In a first example, Membranes from transfected cells were prepared and immunoblotted for GFP-tagged CFTR or CFTR-ΔF508, respectively (by using an antibody directed against the fluorescent protein).
The membrane extract was also treated endoglycosidase H. The rationale for this experiment is as follows: membrane proteins are core glycosylated in the endoplasmatic reticulum. Core glycosylation is sensitive to endoglycosidase H. If the protein has reached the Golgi (and then trafficked to the plasma membrane), it acquires additional sugar moieties and becomes resistant to endoglycosidase H. It is evident from lane 3 in FIG. 1 that endoglycosidase H treatment reduces the apparent size of CFTR; thus, the bulk of the protein is still in the ER. The following lanes examine the expression of CFTR-ΔF508 (all extracts were treated with endoglycosidase H): lane 4 is the control, that is cells expressing CFTR-ΔF508; in lanes 5, 6, 7 and 8 cells expressing CFTR-ΔF508 were treated overnight (i.e. for 16 h) with 100 nM MG132, […], […] and 100 nM bortezomib, respectively.

[3] = cells cotransfected with plasmid driving expression of USP4

Compound: CC(C)C[C@@H](C=O)NC(=O)[C@H](CC(C)C)NC(=O)[C@H](CC(C)C)NC(=O)OCc1ccccc1 [MG132] (Cbz-Leu-Leu-Leu-aldehyde)
- CFTR-ΔF508-expression (CFTR-ΔF508 [1]; 1 μg, HEK293 cells): enhances CFTR-ΔF508-expression
- apoptotic effect (HEK293 cells; 1 μg, HEK293 cells): pronounced apoptotic effect

Compound: O=C1N[C@@H]2[C@@H](O)[C@@H](O)[C@H](O)[C@@H](CO)N2C1=O [kifunensine]
- accumulation of CFTR-ΔF508 (intensity of staining compared to control lane 4) (CFTR-ΔF508 [2]; 20 (unit uncertain)): led to the accumulation of CFTR-ΔF508

Compound: CC(C)C[C@H](NC(=O)[C@H](Cc1ccccc1)NC(=O)c1cnccn1)B(O)O [Bortezomib, N-(2-pyrazine)carbonyl-L-phenylalanine-L-leucine-boronic acid]
- relative effectiveness in accumulation of CFTR-ΔF508, 100 nM versus 1 μM (CFTR-ΔF508 [2]; 100 nM compared with 1 μM, 16 h): more effective than 1 μM bortezomib
- accumulation of CFTR-ΔF508 (intensity of staining compared to control lane 4) (CFTR-ΔF508 [2]; 100 nM): led to the accumulation of CFTR-ΔF508
- accumulation of CFTR-ΔF508 (intensity of staining compared to control lane 4) (CFTR-ΔF508 [2]; 1 (unit uncertain)): led to the accumulation of CFTR-ΔF508
- CFTR-ΔF508-associated fluorescence (expression level) versus control (CFTR-ΔF508 [1]; 10 nM, HEK293 cells): expression of CFTR is increased; also recorded: substantially increases the level of CFTR-ΔF508
- CFTR-ΔF508-associated fluorescence (expression level) versus control (CFTR-ΔF508 [1]; 100 nM, HEK293 cells): expression of CFTR is increased
- cell cycle distribution of CFTR-ΔF508 expressing cells versus control (HEK293 cells; 10 nM, HEK293 cells): essentially the same as the one shown in control cells
- number of cells with low propidium iodide fluorescence (apoptotic cells) (HEK293 cells; 100 nM, HEK293 cells): number of cells with low propidium iodide fluorescence increases
- peak of the G1-cells (M1) in cell cycle distribution (HEK293 cells; 100 nM, HEK293 cells): greatly reduced
- number of cells with low propidium iodide fluorescence (apoptotic cells) (HEK293 cells; 1 μM, HEK293 cells): number of cells with low propidium iodide fluorescence increases
- peak of the G1-cells (M1) in cell cycle distribution (HEK293 cells; 1 μM, HEK293 cells): greatly reduced

Compound: USP-4: deubiquitinating enzyme (ubiquitin specific protease), co-expressed in cells from a transfected plasmid
- CFTR-ΔF508-associated fluorescence versus control (CFTR-ΔF508 [1]; [3]): CFTR-ΔF508-associated fluorescence increases
- toxicity / apoptosis (cell cycle distribution, sub-2n fraction) (HEK293 cells; [3]): not toxic and does not cause apoptosis
